Experimental data: US20190388377A1, “COMPOSITIONS AND METHODS FOR THE TREATMENT OF LIVER DISEASES AND DISORDERS” (AXCELLA HEALTH INC., priority 2018, published 2019)

Legend:
[1] = test system: IL-6; test: IL-6 secretion by ELISA, LPS-treated primary human M1 macrophages, Example 5; format: cell-based
Protocol: Primary human PMBC derived macrophages were seeded on day 0 at 3.0E4 cells per well in 96-well microplates (ThermoFisher) in Dulbecco's Modified Eagle Medium (DMEM) (Gibco) supplemented with penicillin-streptomycin (Hyclone) and 10% heat inactivated fetal bovine serum (HI-FBS) (Atlanta Bio) and incubated overnight at 37° C., 5% CO2. On day 1, cells were washed once with 150 uL per well DPBS (Gibco) and treated with 75 uL of: • a. Amino acid free DMEM (US Biologicals) containing a defined custom amino acid concentration based on the mean physiological concentrations in blood based on values published in the Human Metabolome Database (HMDB), with 6 mM glucose, 1 mM sodium pyruvate, 10 mM HEPES, 0.2% primocin (InVivoGen); or • b. The same media described above with supplemental amino acid and amino acid combination treatments at various concentrations. […]
(§1) On day 3, the supernatant was collected and immediately frozen in −80° C. freezer. Cells were washed once with 150 uL DPBS and viability was assessed using the WST-8 Cell Proliferation Cytotoxicity Assay (Dojindo). […] Protein levels in supernatant samples were analyzed by ELISA for IL-6 and TNFa using commercially available kits (R&D Systems) according to manufacturer-supplied protocols.

[2] = test system: CCL18; test: CCL18 secretion by ELISA, IL-4-treated primary human M2 macrophages, Example 5; format: cell-based; settings: IL-4 1 ng/ml, 5 mM
Protocol: On day 0, primary human PBMC derived macrophages were seeded in Dulbecco's Modified Eagle Medium (DMEM) (Gibco) supplemented with penicillin-streptomycin (Hyclone) and 10% heat inactivated fetal bovine serum (HI-FBS) (Atlanta Bio) into 96-well microplates (ThermoFisher) and incubated overnight at 37° C., 5% CO2. On day 1, cells were washed once with DPBS and then treated with: • a. Amino acid free DMEM (US Biologicals) containing a defined custom amino acid concentration based on the mean physiological concentrations in blood based on values published in the Human Metabolome Database (HMDB), with 6 mM glucose, 1 mM sodium pyruvate, 10 mM HEPES, penicillin-streptomycin; or • b. The same medium described above with one amino acid or amino acid combination at various concentrations
On day 2, cells were treated with the same mediums described above supplemented with recombinant human interleukin-4 (1 ng/ml of IL-4; Peprotech). […]
as §1, with “with” for “with 150 uL”, “(Dojindo) according to manufacturer-supplied protocol.” for “(Dojindo).”, “CCL18” for “IL-6 and TNFa”

[3] = test system: Human CCL2 (MCP-1); test: MCP1 secretion by ELISA after 24 h, PHH model for NASH, Example 2; format: cell-based; settings: FFA+TNFα
Protocol: PHH from two healthy human donors (Lonza, TRL) were seeded on day 0 at density of 6e04 cells in 96 well optical microplates (Thermofisher) in hepatocyte plating media (William's E medium, WEM) (Gibco) supplemented with 10% heat-inactivated FBS (Atlanta Bio), 2 mM Glutamax (Gibco), and 0.2% Primocin (InVivoGen) and incubated for 6 hours at 37° C., 5% CO2. After 6 hours, cells were washed twice and incubated overnight at 37° C., 5% CO2 with Hepatocytes defined medium (Corning) supplemented with 2 mM Glutamax (Gibco), and 1× Penicillin/Streptomycin. On day 1, cells were washed twice and incubated for 24 h in the hepatocyte culture media in the same conditions described above.
On day 2, cells were washed twice with DPBS 1× (Gibco) to remove excess amino acids and maintained in pretreatment media (1×HMDB, a defined custom amino acid concentration based on the mean physiological concentrations in blood, in WEM±supplemental amino acids): • a. Amino acid-free WEM (US Biologicals) supplemented with 11 mM Glucose (Sigma), 0.272 mM Sodium Pyruvate (Sigma), 1× P/S (Gibco) and containing 1×HMDB with no supplemental amino acids; or • b. The same media described above 1×HMDB WEM with supplemental amino acid and amino acid combination treatments at various concentrations. Cells were maintained in the defined media (a. & b.) for 24 hours at 37° C., 5% CO2. The HMDB values are published in the Human Metabolome Database (Wishart D S, Tzur D, Knox C, et al., HMDB: the Human Metabolome Database. Nucleic Acids Res. 2007 January; 35 (Database issue):D521-6. 17202168; which is hereby incorporated by reference in its entirety). Co-Treatment with Free Fatty Acids and Amino Acids Combination
After 24 h pre-treatment, cells maintained in the pretreatment media±supplemental amino acids (section (a. & b.) described above) were exposed to free fatty acids (FFA) at 250 uM with a ratio of 2:1 (Oleate:Palmitate) supplemented with TNF-α (Thermofisher) at 1 ng/ml. Cells were incubated with the FFAs mixture (FFAs+TNF-α)±supplemental amino acids treatments for 24 hours at 37° C., 5% CO2. After 24 hours incubation, media was removed for cytokine analysis and replaced by fresh media containing the same conditions described above (FFAs mixture±supplemental amino acids treatments). Cells were incubated for an additional 48 hours for a total of 72 hours of FFA and TNF-α stimulation. After 72 hours of incubation, media was removed for albumin and urea analysis and the cells were fixed for nuclei and lipid staining.
Human CCL2 (MCP-1) was measured by ELISA (Human […] DuoSet ELISA, R&D Systems) at 1/20 dilution in 1× Reagent Diluent (Reagent Ancillary Kit 2, R&D Systems). MCP1 data in primary human hepatocytes treated with FFA+TNFα+supplemental amino acids was normalized to 1×HMDB WEM+FFA+TNFα baseline. Data is reported as median fold change from control, statistical analysis was done using t-Test.

[4] = test system: Procollagen III; test: Procollagen III secretion by ELISA, TGFβ1-stimulated hepatic stellate cells, Example 4; format: cell-based, human; settings: HSC, three donors
Protocol: Primary human hepatic stellate cells were obtained from Samsara Sciences. Cells from three different donors were grown in Complete HSC Medium to ˜80% confluence in T75 or T150 flasks below passage 10 were seeded into sterile, collagen I coated, 96-well optical plastic microplates (ThermoScientific) and incubated overnight at 37° C., 5% CO2 in a humidified incubator in DMEM with 2% Fetal Bovine Serum and 1% Antimycotic. […] After 24 hours of stimulus, supernatant was removed and used to measure Procollagen III and cells were then washed and fixed with 4% paraformaldehyde for further staining. Procollagen III, an important biomarker of fibrosis was measured by ELISA (Human PCIII Elisa Kit, G-Biosciences) following the manufacturer's recommendations. Fixed cells with 4% paraformaldehyde were permeabilized with 0.1% Triton X-100 then immunostained for alpha SMA and labeled for EdU incorporation.

## CC(=O)N[C@@H](CS)C(=O)O [Nac, N-acetylcysteine]
[1]
  LPS-stimulated IL-6 secretion (in words): decreased LPS-stimulated IL-6 and TNFa secretion
[2]
  CCL18 Median Fold Change from Vehicle (log2): 0.387 log2
[3]; hepatocyte donor 1
  MCP1 secretion (in words): reduced MCP1 secretion
[3]; hepatocyte donor 2
  MCP1 secretion (in words): reduced MCP1 secretion
[4]
  procollagen III secretion (in words): decreased procollagen III secretion but at a lower extent than LIRNacCar and LIRQNacSCar
